This is an account of results in ChEMBL document CHEMBL1139393 (Bioorg Med Chem Lett, 2008).

Data set [1] addresses Matrix metalloproteinase-14 (Homo sapiens, UniProt P50281).
The next data set has as its target Stromelysin-1 (Homo sapiens, UniProt P08254).
Data set [2] addresses 72 kDa type IV collagenase (Homo sapiens, UniProt P08253).
The next data set deals with T1, Matrilysin (Homo sapiens, UniProt P09237).
T1 sequence (P09237 whole entry): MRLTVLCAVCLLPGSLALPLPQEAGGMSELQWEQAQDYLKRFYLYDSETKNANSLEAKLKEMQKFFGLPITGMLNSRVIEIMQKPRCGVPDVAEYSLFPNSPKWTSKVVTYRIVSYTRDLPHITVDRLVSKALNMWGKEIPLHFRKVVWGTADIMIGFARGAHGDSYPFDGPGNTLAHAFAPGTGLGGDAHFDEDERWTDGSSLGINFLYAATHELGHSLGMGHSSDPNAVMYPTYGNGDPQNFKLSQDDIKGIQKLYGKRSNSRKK

Data set [3] addresses T2, Disintegrin and metalloproteinase domain-containing protein 10 (Homo sapiens, UniProt O14672).
T2 sequence (O14672 whole entry): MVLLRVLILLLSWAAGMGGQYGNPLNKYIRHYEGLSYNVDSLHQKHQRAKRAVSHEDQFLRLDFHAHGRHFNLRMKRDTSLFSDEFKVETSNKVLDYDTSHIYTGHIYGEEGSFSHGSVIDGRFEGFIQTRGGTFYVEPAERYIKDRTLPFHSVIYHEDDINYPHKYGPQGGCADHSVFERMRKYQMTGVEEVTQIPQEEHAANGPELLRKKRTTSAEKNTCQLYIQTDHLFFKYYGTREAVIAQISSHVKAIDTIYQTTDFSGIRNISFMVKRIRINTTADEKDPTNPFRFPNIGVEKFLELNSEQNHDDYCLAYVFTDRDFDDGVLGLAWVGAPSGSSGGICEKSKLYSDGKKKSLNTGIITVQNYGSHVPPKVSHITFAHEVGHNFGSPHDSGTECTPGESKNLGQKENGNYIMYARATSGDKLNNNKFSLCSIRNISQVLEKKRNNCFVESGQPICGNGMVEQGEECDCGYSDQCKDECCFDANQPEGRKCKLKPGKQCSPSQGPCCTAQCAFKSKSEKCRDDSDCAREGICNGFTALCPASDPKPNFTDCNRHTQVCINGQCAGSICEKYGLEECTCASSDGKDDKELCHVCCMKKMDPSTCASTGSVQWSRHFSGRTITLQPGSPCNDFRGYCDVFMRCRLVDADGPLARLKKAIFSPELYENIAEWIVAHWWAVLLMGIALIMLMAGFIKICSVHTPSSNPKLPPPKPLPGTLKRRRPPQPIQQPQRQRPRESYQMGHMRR

The target of the next data set is T3, Interstitial collagenase (Homo sapiens, UniProt P03956).
T3 sequence (P03956 whole entry): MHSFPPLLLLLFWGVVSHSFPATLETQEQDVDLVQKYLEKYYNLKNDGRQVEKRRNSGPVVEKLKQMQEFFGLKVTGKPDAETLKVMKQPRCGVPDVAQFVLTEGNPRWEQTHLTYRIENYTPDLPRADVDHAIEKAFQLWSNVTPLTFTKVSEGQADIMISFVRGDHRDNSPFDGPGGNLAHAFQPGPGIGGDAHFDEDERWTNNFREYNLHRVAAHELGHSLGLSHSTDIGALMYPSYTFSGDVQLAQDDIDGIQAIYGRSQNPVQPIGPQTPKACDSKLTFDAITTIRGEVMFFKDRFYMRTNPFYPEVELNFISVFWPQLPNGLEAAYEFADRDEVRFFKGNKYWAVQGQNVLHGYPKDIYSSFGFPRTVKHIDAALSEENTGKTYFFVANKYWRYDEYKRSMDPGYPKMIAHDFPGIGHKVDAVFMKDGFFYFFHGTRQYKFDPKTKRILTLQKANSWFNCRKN

The nature of data set [4]: Permeability from apical to basolateral side of human Caco-2 cells. Type of data set: ADME, cell-based. Particulars: read-out: permeability.
Data set [5] is described as follows: AUC in Sprague-Dawley rat at 10 mg/kg, po. The arrangement: dose 10 mg/kg, route oral. Particulars: plasma. The data set is classed as ADME, organism-based.

pKi: −log10 of the molar value.

Chain of 72 kDa type IV collagenase (P08253 whole entry): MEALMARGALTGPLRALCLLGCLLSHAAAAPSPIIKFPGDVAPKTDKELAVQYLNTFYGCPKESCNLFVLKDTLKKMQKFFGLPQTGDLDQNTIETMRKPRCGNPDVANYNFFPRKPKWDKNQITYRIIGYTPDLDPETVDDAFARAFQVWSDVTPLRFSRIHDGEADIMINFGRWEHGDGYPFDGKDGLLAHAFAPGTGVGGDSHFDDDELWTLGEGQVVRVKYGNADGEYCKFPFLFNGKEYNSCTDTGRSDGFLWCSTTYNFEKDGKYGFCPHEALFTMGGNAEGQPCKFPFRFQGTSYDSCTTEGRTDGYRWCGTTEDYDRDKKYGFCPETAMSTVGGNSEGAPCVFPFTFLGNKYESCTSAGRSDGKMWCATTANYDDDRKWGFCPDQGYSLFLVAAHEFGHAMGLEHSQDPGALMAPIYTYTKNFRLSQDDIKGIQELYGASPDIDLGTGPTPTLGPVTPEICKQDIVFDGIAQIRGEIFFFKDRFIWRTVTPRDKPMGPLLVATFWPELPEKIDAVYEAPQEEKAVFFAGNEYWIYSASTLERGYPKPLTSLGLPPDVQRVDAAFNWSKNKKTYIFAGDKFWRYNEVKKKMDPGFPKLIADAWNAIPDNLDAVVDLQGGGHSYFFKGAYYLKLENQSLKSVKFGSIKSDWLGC
Chain of Stromelysin-1 (P08254 whole entry): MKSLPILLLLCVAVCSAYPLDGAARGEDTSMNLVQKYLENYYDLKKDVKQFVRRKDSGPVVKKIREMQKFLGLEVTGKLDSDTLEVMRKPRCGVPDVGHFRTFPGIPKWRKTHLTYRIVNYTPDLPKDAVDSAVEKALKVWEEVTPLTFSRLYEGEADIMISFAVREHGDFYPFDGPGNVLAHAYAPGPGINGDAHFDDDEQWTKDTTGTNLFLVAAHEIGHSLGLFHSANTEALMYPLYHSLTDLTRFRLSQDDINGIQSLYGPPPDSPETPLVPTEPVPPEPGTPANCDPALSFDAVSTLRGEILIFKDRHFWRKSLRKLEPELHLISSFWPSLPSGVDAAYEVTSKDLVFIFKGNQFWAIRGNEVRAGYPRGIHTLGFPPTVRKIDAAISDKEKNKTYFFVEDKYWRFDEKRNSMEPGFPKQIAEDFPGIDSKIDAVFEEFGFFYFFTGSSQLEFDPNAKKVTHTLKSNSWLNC

For `Cc1cc(COc2ccc(C[C@]3(C(N)=O)C[C@@H]3C(=O)NO)cc2)c2ccccc2n1`, the pKi in data set [1] was 2.62; on Stromelysin-1, 4.24; in data set [2] it was 3.00; on Matrilysin, 3.96; in data set [3], less than 2.00; on Interstitial collagenase, less than 2.00.

Consider `NC(=O)[C@@]1(Cc2ccc(OCc3cc(-c4ccccc4)nc4ccccc34)c(F)c2)C[C@@H]1C(=O)NO`, for which the Papp A→B in data set [4] is 0.3 ×10⁻⁶ cm/s.

As to `N#C[C@@]1(Cc2ccc(OCc3cc(-c4ccccc4)nc4ccccc34)cc2)C[C@@H]1C(=O)NO`, the AUC in data set [5] is greater than 2.5 µM·h.

In the case of `O=C(NO)[C@H]1C[C@]1(Cc1ccc(OCc2cc(-c3ccccc3)nc3ccccc23)cc1)C(=O)N1CCC[C@H]1CO`, the pKi (in data set [1]; on Stromelysin-1; in data set [2]; at Matrilysin; in data set [3]; on Interstitial collagenase) was less than 2.00 in each case.

The term pKi denotes the negative decadic logarithm of the Ki, by convention in mol/L. Lower therefore signals a high Ki. What is called AUC is concentration integrated over time. Lower therefore signals less exposure.
